Reference: patent US20260125400A1, “TYK2 DEGRADERS AND USES THEREOF” (Kymera Therapeutics, Inc., priority 2023, published 2026)
Where two headings read alike, the source gives them in different places.

Target: T1, TYK2 (Homo sapiens, UniProt P29597)
T1 construct: Degradation of TYK2 in cells was quantitatively measured using Meso Scale Discovery (MSD) technology; endogenous in cells; host or cells: OCI-LY10
Assay: TYK2 MSD degradation in OCI-LY10 cells
Assay type: cell-based
Settings: 4 to 24 hours incubation; for DC50: read-out: TYK2 MSD OCI-LY10 Rel-DC50
Procedure, shortened: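 OCI-LY10 cells were treated with 9-dose 1:3 series (top 1 to 10 μM final) for 4 to 24 hours at 37° C. Lysate TYK2 quantified by MSD sandwich immunoassay; DC50 and Dmax from four-parameter inhibitor vs. response fit.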

[1] = TYK2 degradation in OCI-LY10 cells

T1 sequence (P29597 whole entry): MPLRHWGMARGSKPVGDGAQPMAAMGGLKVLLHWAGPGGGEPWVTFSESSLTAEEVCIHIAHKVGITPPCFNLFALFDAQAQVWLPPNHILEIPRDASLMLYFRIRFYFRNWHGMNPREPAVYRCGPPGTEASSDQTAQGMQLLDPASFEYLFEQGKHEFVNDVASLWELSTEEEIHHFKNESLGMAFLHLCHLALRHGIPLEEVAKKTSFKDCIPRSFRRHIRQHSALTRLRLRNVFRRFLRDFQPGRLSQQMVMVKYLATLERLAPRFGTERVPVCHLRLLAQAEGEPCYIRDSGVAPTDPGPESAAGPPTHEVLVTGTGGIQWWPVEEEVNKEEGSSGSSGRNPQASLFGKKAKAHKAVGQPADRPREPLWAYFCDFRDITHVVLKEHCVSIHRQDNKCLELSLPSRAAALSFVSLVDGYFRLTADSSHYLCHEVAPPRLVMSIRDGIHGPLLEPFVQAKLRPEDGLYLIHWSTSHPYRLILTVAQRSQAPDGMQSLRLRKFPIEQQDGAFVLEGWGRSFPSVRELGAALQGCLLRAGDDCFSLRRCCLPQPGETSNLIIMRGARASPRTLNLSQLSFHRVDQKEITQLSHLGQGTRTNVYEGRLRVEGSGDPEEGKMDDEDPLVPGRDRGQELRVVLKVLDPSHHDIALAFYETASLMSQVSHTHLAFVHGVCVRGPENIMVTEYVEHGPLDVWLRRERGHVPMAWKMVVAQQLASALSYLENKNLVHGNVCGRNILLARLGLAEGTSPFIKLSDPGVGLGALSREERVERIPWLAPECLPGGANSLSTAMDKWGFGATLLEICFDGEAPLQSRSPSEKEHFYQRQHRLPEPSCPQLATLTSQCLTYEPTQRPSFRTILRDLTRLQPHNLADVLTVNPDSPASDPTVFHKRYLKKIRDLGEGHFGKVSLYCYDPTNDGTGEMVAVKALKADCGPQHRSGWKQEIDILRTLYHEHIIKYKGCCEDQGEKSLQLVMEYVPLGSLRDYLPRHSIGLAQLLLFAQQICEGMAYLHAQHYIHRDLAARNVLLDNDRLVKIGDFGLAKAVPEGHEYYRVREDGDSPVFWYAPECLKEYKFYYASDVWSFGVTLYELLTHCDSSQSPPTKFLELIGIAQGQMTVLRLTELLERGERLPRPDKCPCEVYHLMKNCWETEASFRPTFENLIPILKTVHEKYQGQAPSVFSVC

SMILES	TYK2 MSD OCI-LY10 Dmax % [1]	DC50 [1] [nM]	TYK2 MSD OCI-LY10 Dmax % (OCI-LY10 cells)	DC50 (OCI-LY10 cells) [nM]	Dmax (OCI-LY10 cells) [%]
CNc1cc(N2CCc3c(CN4CCC(N5CCC(OCC#Cc6cccc7c6n(C)c(=O)n7C6CCC(=O)NC6=O)CC5)C(F)(F)C4)cccc32)nn2c(C(=O)N[C@@H]3C[C@@H]3F)cnc12 (stereo partly shown) [I-372]	D (D (<50%))	< 10	–	–	–
CNc1cc(N2CCc3c(-c4ccc(CN5CCN(Cc6ccc(C7CCC(=O)NC7=O)c(Cl)c6)CC5)cn4)cccc32)nn2c(C(=O)N[C@@H]3C[C@@H]3F)cnc12 (stereo partly shown) [I-374]	D (D (<50%))	< 10	–	–	–
CNc1cc(N2CCc3c(-c4ccc(CN5CCC(Oc6ccc(C7CCC(=O)NC7=O)c(Cl)c6)CC5)cn4)cccc32)nn2c(C(=O)N[C@@H]3C[C@@H]3F)cnc12 (stereo partly shown) [I-387]	B (B (90 to >75%))	10 to 100	–	–	–
CNc1cc(N2CCc3c(-c4ccc(CN5CCN(Cc6ccc(NC7CCC(=O)NC7=O)c(Cl)c6)CC5)cn4)cccc32)nn2c(C(=O)N[C@@H]3C[C@@H]3F)cnc12 (stereo partly shown) [I-389]	C (C (75 to 50%))	< 10	–	–	–
CNc1cc(N2CCc3c(-c4cc(CN5CCN(CCc6ccc(Cl)c(C7CCC(=O)NC7=O)c6)CC5)ccn4)cccc32)nn2c(C(=O)NC3CC3F)cnc12 (stereo not shown) [I-395]	–	–	D (D (<50%))	> 100	–
CNc1cc(N2CCc3c(CN4CCC(N5CCN(Cc6ccc(Cl)c(C7CCC(=O)NC7=O)c6)CC5)C(F)(F)C4)cccc32)nn2c(C(=O)NC3CC3F)cnc12 (stereo not shown) [I-421]	–	–	D (D (<50%))	> 100	–
CNc1cc(N2CCc3c(-c4ccc(OCC5CCN(Cc6ccc(Cl)c(C7CCC(=O)NC7=O)c6)CC5)cn4)cccc32)nn2c(C(=O)N[C@@H]3C[C@@H]3F)cnc12 (stereo partly shown) [I-425]	–	–	D (D (<50%))	> 100	–
CNc1cc(N2CCc3c2cccc3C23CC(CN4CCC(N5CC(N6CCN(c7cccc8c7n(C)c(=O)n8C7CCC(=O)NC7=O)CC6)C5)C(F)(F)C4)(C2)C3)nn2c(C(=O)N[C@@H]3C[C@@H]3F)cnc12 (stereo partly shown) [I-429]	–	–	B (B (90 to >75%))	< 10	–
CNc1cc(N2CCc3c(-c4ccc(CN5CC6(CCN(Cc7ccc(OC)c(C8CCC(=O)NC8=O)c7)CC6(F)F)C5)cn4)cccc32)nn2c(C(=O)N[C@@H]3C[C@@H]3F)cnc12 (stereo partly shown) [I-431]	–	–	B (B (90 to >75%))	< 10	–
CNc1cc(N2CCc3c(-c4ccc(CN5CC6(CCN(Cc7cc(N8CCC(=O)NC8=O)c(Cl)cc7C)CC6(F)F)C5)cn4)cccc32)nn2c(C(=O)N[C@@H]3C[C@@H]3F)cnc12 [I-456]	–	–	D (D (<50%))	> 100	–
CNc1cc(N2CCc3c(-c4ccc(CN5CC6(CCN(Cc7c(C)ccc(N8CCC(=O)NC8=O)c7C)CC6(F)F)C5)cn4)cccc32)nn2c(C(=O)N[C@@H]3C[C@@H]3F)cnc12 [I-458]	–	–	D (D (<50%))	< 10	–
CNc1cc(N2CCc3c(-c4ccc(CN5CCC6(CC5)CC(COc5ccc(C7CCC(=O)NC7=O)c(Cl)c5)C6)cn4)cccc32)nn2c(C(=O)N[C@@H]3C[C@@H]3F)cnc12 (stereo partly shown) [I-460]	–	–	D (D (<50%))	> 100	–
CNc1cc(N2CCc3c(-c4ccc(CN5CCC6(CC5)CC(COc5ccc(Cl)c(C7CCC(=O)NC7=O)c5)C6)cn4)cccc32)nn2c(C(=O)N[C@@H]3C[C@@H]3F)cnc12 (stereo partly shown) [I-461]	–	–	D (D (<50%))	< 10	–
CNc1cc(N2CCc3c(-c4ccc(CN5CC6(CCC(COc7ccc(Cl)c(C8CCC(=O)NC8=O)c7)CC6)C5)cn4)cccc32)nn2c(C(=O)N[C@@H]3C[C@@H]3F)cnc12 (stereo partly shown) [I-462]	–	–	D (D (<50%))	10 to 100	–
CNc1cc(N2CCc3c(-c4ccc(CN5CC6(CCC(COc7ccc(C8CCC(=O)NC8=O)c(Cl)c7)CC6)C5)cn4)cccc32)nn2c(C(=O)N[C@@H]3C[C@@H]3F)cnc12 (stereo partly shown) [I-463]	–	–	D (D (<50%))	> 100	–
CNc1cc(N2CCc3c(-c4cnc(CN5CC6(CCN(C(=O)c7ccc(Cl)c(N8CCC(=O)NC8=O)c7)CC6)C5)nc4)cccc32)nn2c(C(=O)N[C@@H]3C[C@@H]3F)cnc12 [I-465]	–	–	B (B (90 to >75%))	< 10	–

SMILES	TYK2 MSD OCI-LY10 Dmax % [1]	DC50 [1] [nM]	TYK2 MSD OCI-LY10 Dmax % (OCI-LY10 cells)	DC50 (OCI-LY10 cells) [nM]	Dmax (OCI-LY10 cells) [%]
CNc1cc(N2CCc3c(-c4cnc(CN5CC6(CCN(C(=O)c7ccc(Cl)c(N8CCC(=O)NC8=O)c7)CC6)C5)cn4)cccc32)nn2c(C(=O)N[C@@H]3C[C@@H]3F)cnc12 [I-466]	–	–	A (A (>90%))	< 1	–
CNc1cc(N2CCc3c(C#CCN4CCC(N5CCC(C6CCN(c7ccc8c(c7)n(C)c(=O)n8C7CCC(=O)NC7=O)CC6)CC5)C(F)(F)C4)cccc32)nn2c(C(=O)N[C@@H]3C[C@@H]3F)cnc12 (stereo partly shown) [I-467]	–	–	B (B (90 to >75%))	< 10	–
CNc1cc(N2CCc3c(CN4CCC(N5CC(CN6CCN(c7ccc8c(c7)n(C)c(=O)n8C7CCC(=O)NC7=O)CC6)C5)C(F)(F)C4)cccc32)nn2c(C(=O)N[C@@H]3C[C@@H]3F)cnc12 (stereo partly shown) [I-468]	–	–	B (B (90 to >75%))	< 1	–
CNc1cc(N2CCc3c(-c4ccc(CN5CCC(N6CCC(CC#Cc7ccc8c(c7)n(C)c(=O)n8C7CCC(=O)NC7=O)CC6)C(F)(F)C5)cn4)cccc32)nn2c(C(=O)N[C@@H]3C[C@@H]3F)cnc12 (stereo partly shown) [I-469]	–	–	B (B (90 to >75%))	< 10	–
CNc1cc(N2CCc3c(-c4ccc(CN5CCC(N6CC(N7CCN(c8ccc9c(c8F)n(C)c(=O)n9C8CCC(=O)NC8=O)CC7)C6)C(F)(F)C5)cn4)cccc32)nn2c(C(=O)N[C@@H]3C[C@@H]3F)cnc12 (stereo partly shown) [I-470]	–	–	B (B (90 to >75%))	< 1	–
CNc1cc(N2CCc3c(CN4CCC(N5CC(N6CCN(c7cccc8c7n(C)c(=O)n8C7CCC(=O)NC7=O)CC6)C5)C(F)(F)C4)cccc32)nn2c(C(=O)N[C@@H]3C[C@@H]3F)cnc12 (stereo partly shown) [I-471]	–	–	B (B (90 to >75%))	< 1	–
CNc1cc(N2CCc3c(C#CCN4CCC(N5CCC6(CCN(c7ccc8c(c7)n(C)c(=O)n8C7CCC(=O)NC7=O)CC6)CC5)C(F)(F)C4)cccc32)nn2c(C(=O)N[C@@H]3C[C@@H]3F)cnc12 (stereo partly drawn) [I-486, 6-(4-(3-(4-(9-(1-(2,6-Dioxopiperidin-3-yl)-3-methyl-2-oxo-2,3-dihydro-LH-benzo[d]imidazol-5-yl)-3,9-diazaspiro[5.5]undecan-3-yl)-3,3-difluoropiperidin-1-yl)prop-1-yn-1-yl)indolin-1-yl)-N-((1R,2S)-2-fluorocyclopropyl)-8-(methylamino)imidazo[1,2-b]pyridazine-3-carboxamide]	–	–	–	< 10	75 to 90
CNc1cc(N2CCc3c(CN4CCC(N5CCC(CC#Cc6cccc7c6n(C)c(=O)n7C6CCC(=O)NC6=O)CC5)C(F)(F)C4)cccc32)nn2c(C(=O)NC3CC3F)cnc12 (stereo not shown) [I-488]	–	–	D (D (<50%))	10 to 100	–
CNc1cc(N2CCc3c(-c4ccc(CN5CC6(CCN(C(=O)c7ccc(Cl)c(C8CCC(=O)NC8=O)c7)CC6(F)F)C5)cn4)cccc32)nn2c(C(=O)N[C@@H]3C[C@@H]3F)cnc12 (stereo partly shown) [I-502]	–	–	A (A (>90%))	< 1	–
CNc1cc(N2CCc3c(N4CCC(CN5CCC6(CC5)CCN(c5ccc(Cl)c(C7CCC(=O)NC7=O)c5)CC6)CC4)cccc32)nn2c(C(=O)N[C@@H]3C[C@@H]3F)cnc12 (stereo partly shown) [I-513]	–	–	D (D (<50%))	10 to 100	–
CNc1cc(N2CCc3c(-c4ccc(OCCC5CCN(C(=O)c6ccc(Cl)c(N7CCC(=O)NC7=O)c6)CC5)cn4)cccc32)nn2c(C(=O)N[C@@H]3C[C@@H]3F)cnc12 [I-617]	–	–	C (C (75 to 50%))	< 10	–
CNc1cc(N2CCc3c(-c4ccc(CN5CC6(CCN(C(=O)c7cc(Cl)c(C)c(N8CCC(=O)NC8=O)c7)CC6(F)F)C5)cn4)cccc32)nn2c(C(=O)N[C@@H]3C[C@@H]3F)cnc12 [I-634]	–	–	A (A (>90%))	< 1	–
CNc1cc(N2CCc3c(-c4ccc(CN5CC6(CCN(C(=O)c7ccc(Cl)c(N8CCC(=O)NC8=O)c7)CC6(F)F)C5)cn4)cccc32)nn2c(C(=O)NC3CC(F)(F)C3)cnc12 [I-653]	–	–	B (B (90 to >75%))	< 10	–
CNc1cc(N2CCc3c(-c4ccc(CC5CCC6(CC5)CCN(C(=O)c5ccc(Cl)c(N7CCC(=O)NC7=O)c5)CC6)cn4)cccc32)nn2c(C(=O)N[C@@H]3C[C@@H]3F)cnc12 [I-654]	–	–	B (B (90 to >75%))	< 10	–
CNc1cc(N2CCc3c(-c4ccc(CN5CCC6(CCN(C(=O)c7cc(C)c(Cl)c(N8CCC(=O)NC8=O)c7)CC6)C(F)(F)C5)cn4)cccc32)nn2c(C(=O)N[C@@H]3C[C@@H]3F)cnc12 [I-655]	–	–	B (B (90 to >75%))	< 10	–
CNc1cc(N2CCc3c(-c4ccc(CN5CCC6(CCN(C(=O)c7cc(F)c(Cl)c(N8CCC(=O)NC8=O)c7)CC6)C(F)(F)C5)cn4)cccc32)nn2c(C(=O)N[C@@H]3C[C@@H]3F)cnc12 [I-656]	–	–	B (B (90 to >75%))	< 1	–
